Columns and labels:
Type in all cases: ADME, cell-based
[1] = Intracellular drug level in CEM CCL19 cells at 0.2 ug/ml after 24 hrs; details: human, ccrf-cem
[2] = Increase in accumulation of the drug in CEM CCL19 cells in presence of 50 uM Verapamil relative to control; details: human, ccrf-cem
[3] = Intracellular drug level in CEM CCL19 cells at 2 ug/ml after 24 hrs; details: human, ccrf-cem
[4] = Increase in accumulation of the drug in CEM CCL19 cells in presence of 50 uM Dipyridamole relative to control; details: human, ccrf-cem
[5] = Increase in accumulation of the drug in CEM CCL19 cells in presence of 24 uM Efavirenz relative to control; details: human, ccrf-cem
[6] = Increase in accumulation of the drug in CEM CCL19 cells in presence of 50 uM Probenecid relative to control; details: human, ccrf-cem
[7] = Intracellular drug level in CEM CCL19 cells at 20 ug/ml after 24 hrs; details: human, ccrf-cem
PBMC [8] = test: Ratio of intracellular drug level to extracellular drug level in human PBMC at 20 ug/ml after 24 hrs
PBMC [9] = test: Ratio of intracellular drug level to extracellular drug level in human PBMC at 2 ug/ml after 24 hrs
PBMC [10] = test: Intracellular drug level in human PBMC at 20 ug/ml after 24 hrs
PBMC [11] = test: Ratio of intracellular drug level to extracellular drug level in human PBMC at 0.2 ug/ml after 24 hrs
[12] = Decrease in accumulation of the drug in CEM CCL19 cells in presence of 28 uM Nevirapine relative to control; parameters: scale not given: the % may be the effect or the level left; details: human, ccrf-cem
[13] = Ratio of intracellular drug level to extracellular drug level in CEM CCL19 cells at 20 ug/ml after 24 hrs; details: human, ccrf-cem
PBMC [14] = test: Intracellular drug level in human PBMC at 0.2 ug/ml after 24 hrs
[15] = Ratio of intracellular drug level to extracellular drug level in CEM CCL19 cells at 0.2 ug/ml after 24 hrs; details: human, ccrf-cem
PBMC [16] = test: Intracellular drug level in human PBMC at 2 ug/ml after 24 hrs
[17] = Ratio of intracellular drug level to extracellular drug level in CEM CCL19 cells at 2 ug/ml after 24 hrs; details: human, ccrf-cem

Drug uptake [1]: 0.0887 µg/mL
Activity [2]: 70%
Drug uptake [3]: 0.2049 µg/mL
Activity [4]: 125%
Activity [5]: 125%
Activity [6]: 25%
Drug uptake [7]: 0.8423 µg/mL
Ratio (PBMC [8]): 0.602
Ratio (PBMC [9]): 2.7
Drug uptake (PBMC [10]): 12.048 µg/mL
Ratio (PBMC [11]): 19.2
Activity [12]: 50%
Ratio [13]: 0.04
Drug uptake (PBMC [14]): 3.838 µg/mL
Ratio [15]: 0.44
Drug uptake (PBMC [16]): 5.409 µg/mL
Ratio [17]: 0.1
Structure (SMILES): COC(=O)N[C@H](C(=O)N[C@@H](Cc1ccccc1)[C@@H](O)CN(Cc1ccc(-c2ccccn2)cc1)NC(=O)[C@@H](NC(=O)OC)C(C)(C)C)C(C)(C)C [ATAZANAVIR]

Reference: ChEMBL document CHEMBL1142181, “Quantitative immunoassay to measure plasma and intracellular atazanavir levels: analysis of drug accumulation in cultured T cells” (Antimicrob Agents Chemother, 2007)
